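Interpolation was linear, between the two tested concentrations surrounding the appropriate level; five concentrations were tested over 48 hours in 96-well plates. GI50: concentration for 50% inhibition of growth.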 Calls of active or inactive are those of the source. Rule as the data show it: active = GI50 up to about 1.1 µM and inactive = higher.
Key:
Assay in all cases: growth of human tumour cells (NCI), 48 h
LOX IMVI = test system: LOX IMVI
CAKI-1 = test system: CAKI-1
EKVX = test system: EKVX
SN12C = test system: SN12C
DMS-114 = test system: DMS-114
SF-539 = test system: SF-539
NCI-H226 = test system: NCI-H226
OVCAR-8 = test system: OVCAR-8
OVCAR-4 = test system: OVCAR-4
K562 = test system: K562
NCI-H460 = test system: NCI-H460
Malme-3M = test system: Malme-3M
U-251 = test system: U-251
A498 = test system: A498
UACC-257 = test system: UACC-257
Hs-578T = test system: Hs-578T
SK-MEL-5 = test system: SK-MEL-5
MDA-MB-435 = test system: MDA-MB-435
PC-3 = test system: PC-3
MDA-MB-231 = test system: MDA-MB-231

Row | Compound | GI50 (LOX IMVI) | GI50 (CAKI-1) | GI50 (EKVX) | GI50 (SN12C) | GI50 (DMS-114) | GI50 (SF-539) | GI50 (NCI-H226) | GI50 (OVCAR-8) | GI50 (OVCAR-4) | GI50 (K562) | GI50 (NCI-H460) | GI50 (Malme-3M) | GI50 (U-251) | GI50 (A498) | GI50 (UACC-257) | GI50 (Hs-578T) | GI50 (SK-MEL-5) | GI50 (MDA-MB-435) | GI50 (PC-3) | GI50 (MDA-MB-231)
1 | Cc1cc2c(C(C)C)c(O)c(O)c(/C=N/c3ccccc3)c2c(O)c1-c1c(C)cc2c(C(C)C)c(O)c(O)c(/C=N/c3ccccc3)c2c1O | > 100 µM (inactive) | > 100 µM (inactive) | > 100 µM (inactive) | > 100 µM (inactive) | > 100 µM (inactive) | > 100 µM (inactive) | > 100 µM (inactive) | > 100 µM (inactive) | > 100 µM (inactive) | > 100 µM (inactive) | > 100 µM (inactive) | > 100 µM (inactive) |  |  |  |  |  |  |  | 
2 | O=C1NC2(CCCCC2)C2CCCCCC12 (stereo not given) | > 100 µM (inactive) |  | > 100 µM (inactive) | > 100 µM (inactive) | > 100 µM (inactive) | > 100 µM (inactive) | > 100 µM (inactive) |  | > 100 µM (inactive) | > 100 µM (inactive) | > 100 µM (inactive) | > 100 µM (inactive) | > 100 µM (inactive) | > 100 µM (inactive) | > 100 µM (inactive) |  |  |  |  | 
3 | COc1nc(N)nc2nc[nH]c12 | 381 µM (inactive) | 162 µM (inactive) | > 387 µM (inactive) | 441 µM (inactive) | 467 µM (inactive) | 495 µM (inactive) | 318 µM (inactive) | > 500 µM (inactive) | 479 µM (inactive) | > 500 µM (inactive) | 430 µM (inactive) | 290 µM (inactive) | 488 µM (inactive) | 228 µM (inactive) | 486 µM (inactive) | 416 µM (inactive) | > 500 µM (inactive) | > 500 µM (inactive) | 466 µM (inactive) | 444 µM (inactive)
4 | COc1ccc(N2C(=O)C3C=CC(n4[nH]c(=O)n(Cc5ccccc5)c4=O)CC3C2=O)cc1 (stereo not given) | > 100 µM (inactive) | > 100 µM (inactive) | > 100 µM (inactive) | > 100 µM (inactive) | > 100 µM (inactive) | > 100 µM (inactive) | > 100 µM (inactive) | > 100 µM (inactive) |  | > 100 µM (inactive) | > 100 µM (inactive) | > 100 µM (inactive) | > 100 µM (inactive) | 86.7 µM (inactive) | > 100 µM (inactive) |  | > 100 µM (inactive) |  |  | 
5 | COc1cc2c(cc1OC)C(Cl)C(c1cc(OC)c(OC)c(OC)c1)=C2Cl (stereo not given) | 13.1 µM (inactive) | 9.1 µM (inactive) | 19.1 µM (inactive) | 13.9 µM (inactive) | 10.8 µM (inactive) | 13.8 µM (inactive) | 18.7 µM (inactive) | 17.5 µM (inactive) |  | 12.4 µM (inactive) | 14.4 µM (inactive) | 14.1 µM (inactive) | 16.4 µM (inactive) | 22.3 µM (inactive) |  |  | 15.6 µM (inactive) |  |  | 
6 | CCOC1=C2N=C(Cc3ccc(F)cc3)NC2C(=O)c2ccccc21 (stereo not given) | 22.2 µM (inactive) |  | 23.2 µM (inactive) |  | 18.5 µM (inactive) | 13.3 µM (inactive) |  | 20.6 µM (inactive) |  | 17.9 µM (inactive) | 12.6 µM (inactive) | 11.5 µM (inactive) | 33 µM (inactive) | 21.6 µM (inactive) | 7.91 µM (inactive) |  |  |  |  | 
7 | NC1(C(=O)O)CCc2ccc(N(CCCl)CCCl)cc2C1 (stereo not given) | 39.7 µM (inactive) |  | > 100 µM (inactive) | 49.3 µM (inactive) | 45.9 µM (inactive) | 34.5 µM (inactive) | > 100 µM (inactive) | > 100 µM (inactive) | > 100 µM (inactive) | > 100 µM (inactive) | 10.2 µM (inactive) | 1 µM (active) | 23.8 µM (inactive) | > 100 µM (inactive) | > 100 µM (inactive) |  | 57.3 µM (inactive) |  |  | 
